Legend:
[1] = tested on: subfoveal CNV secondary to wAMD; test: single-arm, open-label clinical study in treatment-naïve wAMD patients, 4 week regimen; format: in vivo, human; settings: 400 mg orally twice daily for 4 weeks
Description: Patients with newly diagnosed (e.g. treatment-naïve) subfoveal CNV that was secondary to wAMD were entered into a single-arm, open-label study. Patients orally took 400 mg of the investigational drug of the invention b.o.d. (twice daily) for 4 weeks and had weekly scheduled visits with the physician. The regimen called for […]. After the end of treatment (EoT) or on withdrawal from the study medication, eligible patients could receive standard of care therapy (anti-VEGF therapy). Patients were followed up twice within 4 weeks after EoT. FIG. 2 is a depiction of the clinical trial design. Boxes V1, V2, V3, V4, and V5 indicate patient visits 1 through 5, respectively. Gaps between the boxes indicate the time in days between visits. The box labeled EoT indicates visit 6, or the end of treatment. Visits 7 and 8 occurred during the follow-up (FU) visits.
The primary endpoint was the change from baseline in central retinal thickness (CRT) as determined by spectral domain optical coherence tomography (SD-OCT) on day 29 (visit no. 6). For all primary and secondary endpoints, the value of the last assessment before first intake of study medication was used as the baseline on day 1 (visit no. 2).
CRT was reported as mean (SEM) in units of μm and time as visit number. The retinal layers and thickness was visualized and measured by SD-OCT, and to those having ordinary of skill in the art and trained using OCT equipment, visualization and measurement of the retinal layers involve well-known techniques. […]
The retinal vasculature of the study eye was evaluated via fluorescein angiography (FA). The change in neovascular leakage by FA was determined on Day 29 (visit 6) compared to baseline. […] N is the number of patients evaluated.
Visual acuity was determined using ETDRS charts over time of treatment. The absolute change in numbers of letters read by patients from their baseline levels was evaluated during visits. […]

mouse CCR3 = molecular target: T1, mouse CCR3 (Mus musculus, UniProt P51678); test: receptor binding assay, mouse CCR3
T1 sequence (P51678 1-359): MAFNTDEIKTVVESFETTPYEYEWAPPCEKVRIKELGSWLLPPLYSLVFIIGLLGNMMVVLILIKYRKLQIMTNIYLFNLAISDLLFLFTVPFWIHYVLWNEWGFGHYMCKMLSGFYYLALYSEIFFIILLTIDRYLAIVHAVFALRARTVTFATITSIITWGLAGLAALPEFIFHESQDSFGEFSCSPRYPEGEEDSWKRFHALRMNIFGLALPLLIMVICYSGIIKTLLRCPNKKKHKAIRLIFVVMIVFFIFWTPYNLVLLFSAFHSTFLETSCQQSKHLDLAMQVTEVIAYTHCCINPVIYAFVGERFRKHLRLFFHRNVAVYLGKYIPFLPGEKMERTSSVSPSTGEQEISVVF
Description: (§1) Potencies for several other mammalian species were also determined in different assays. Species included cynomolgus (macaque) monkeys, mouse, rat, and canines.

rat CCR3 = molecular target: T2, rat CCR3 (Rattus norvegicus, UniProt O54814); test: receptor binding assay, rat CCR3
T2 sequence (O54814 1-359): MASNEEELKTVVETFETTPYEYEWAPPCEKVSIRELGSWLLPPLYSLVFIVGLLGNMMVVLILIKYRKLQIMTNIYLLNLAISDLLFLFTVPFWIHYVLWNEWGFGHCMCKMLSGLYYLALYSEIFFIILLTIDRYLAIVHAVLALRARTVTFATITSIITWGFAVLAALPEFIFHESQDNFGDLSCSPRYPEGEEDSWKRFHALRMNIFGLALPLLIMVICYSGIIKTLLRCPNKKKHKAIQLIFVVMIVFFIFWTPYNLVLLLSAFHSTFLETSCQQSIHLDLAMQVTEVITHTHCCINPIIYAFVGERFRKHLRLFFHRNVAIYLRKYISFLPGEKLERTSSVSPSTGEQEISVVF
Description: as §1

human CCR3 [2] = molecular target: T3, human CCR3 (Homo sapiens, UniProt P51677); test: calcium influx assay using human CCR3-transfected CHEM1-Gα15 cells; format: cell-based
T3 sequence (P51677 1-355): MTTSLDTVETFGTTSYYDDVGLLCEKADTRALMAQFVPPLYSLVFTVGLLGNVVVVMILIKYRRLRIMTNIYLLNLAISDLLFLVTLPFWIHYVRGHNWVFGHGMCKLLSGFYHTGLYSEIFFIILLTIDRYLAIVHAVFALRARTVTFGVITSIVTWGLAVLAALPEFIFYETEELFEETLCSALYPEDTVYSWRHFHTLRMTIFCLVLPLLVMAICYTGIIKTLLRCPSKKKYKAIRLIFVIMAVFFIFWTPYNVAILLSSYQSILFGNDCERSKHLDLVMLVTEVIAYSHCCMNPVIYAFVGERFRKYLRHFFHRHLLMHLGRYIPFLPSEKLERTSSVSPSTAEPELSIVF
Description: (§2) The antagonistic potency of the investigational product of the invention was determined in several human CCR3-dependent assays (FIG. 1). […] IC50 for a calcium influx assay using human CCR3-transfected CHEM1-Gα15 cells was determined to be 0.9±0.2 nM.

human CCR3 [3] = molecular target: T3, human CCR3; test: human eotaxin-1 induced eosinophil shape change in human whole blood; format: cell-based; settings: read-out: IC50, antagonism of human eotaxin-1 induced eosinophil shape change
Description: as §2

human CCR3 [4] = molecular target: T3, human CCR3; test: receptor binding assay, human CCR3
Description: as §2

- IC50 (mouse CCR3): 87.3 ± 5.6 nM
- Ki (mouse CCR3): 124.3 ± 0.9 nM
- IC50 (rat CCR3): 1720 ± 130 nM
- Ki (rat CCR3): 1490 ± 128 nM
- IC50 (human CCR3 [2]): 0.9 ± 0.2 nM
- IC50 (human CCR3 [3]): 42.5 ± 43.5 nM
- IC50 (human CCR3 [4]): 4 ± 1.8 nM
- Ki (human CCR3 [4]): 3.2 ± 0.6 nM
SMILES: Cc1cc(C(=O)N(C)C)cc(NC(=O)[C@H]2CCC(=O)N2C2CCN(Cc3ccc(Cl)c(C)c3)CC2)n1 [investigational product of the invention]
- change from baseline in central retinal thickness (CRT) by SD-OCT ([1]; median or mean CRT through the treatment phase): no significant change from baseline
- change from baseline in neovascular leakage by fluorescein angiography ([1]; median or mean values through the treatment phase): no significant change from baseline
- best corrected visual acuity (BCVA), change in letters read, ETDRS charts ([1]; subset of 8 out of 14 patients, compared to sham control and the larger patient group): significant improvement

— patent publication US11590118B2, “Methods and compositions for treating retina-associated disease using CCR3-inhibitors” (ALKAHEST INC., priority 2017, dated 2023)
